Test results reported in patent EP4610269A1, “UROKINASE PLASMINOGEN ACTIVATOR SURFACE RECEPTOR (UPAR) LIGANDS FOR DIAGNOSTIC OR THERAPEUTIC USE” (3B Pharmaceuticals GmbH, priority 2024, dated 2025).
*1 amine or outer side, *2 acyl side, *3 side chain or, on linkers, in order; H or OH if unused. Where a SMILES comes first, the peptide text is derived from it. Bridges are numbered along the chain shown (N, C = ends). [ ]: non-standard residue; d: D form. The star is where a group is joined. DOTA = O=C(O)CN1CCN(CC(=O)O)CCN(CC(=O)*)CCN(CC(=O)O)CC1; Hyp = O=C(O)[C@@H]1C[C@@H](O)CN1; 3Pal = N[C@@H](Cc1cccnc1)C(=O)O; Pentanoyl(4-Me) = CC(C)CCC(=O)*; Cit = NC(=O)NCCC[C@H](N)C(=O)O; Suc = O=C(CCC(=O)[*:2])[*:1]; Nva = CCC[C@H](N)C(=O)O; Pentanoyl = CCCCC(=O)*; AEEA = NCCOCCOCC(=O)O

Assays:
[1] = Plasma stability assay (mouse plasma); type: in vitro ADME; settings: mouse plasma (sodium citrate 3.7%), 37°C, LC-MS quantification, read-out: % intact compound remaining after 6h incubation Mouse plasma
Protocol: In order to determine the stability of selected compounds of the invention in human and mouse plasma, a plasma stability assay was carried out. Such plasma stability assay measures degradation of compounds of the present invention in blood plasma. This is an important characteristic of a compound as compounds, with the exception of pro-drugs, which rapidly degrade in plasma, generally show poor in vivo efficacy. […] The stability is sufficient for the diagnostic, therapeutic and theragnostic use of these compounds according to the present invention.
The plasma stability samples were prepared by spiking 50 µl plasma aliquots (all sodium citrate 3.7%) with 1 µl of a 0.5 mM compound stock solution in DMSO. After vortexing the samples were incubated in a Thermomixer at 37°C for 0 and 6 hours. After incubation the samples were stored on ice until further treatment. All samples were prepared in duplicates.
A suitable internal standard was added to each sample (1 µl of a 0.5 mM stock solution in DMSO). Protein precipitation was performed using two different methods depending on the compound conditions as indicated in Table 13. • A) 250 µl of acetonitrile containing 1% trifluoroacetic acid was added. After incubation at room temperature for 30 min the precipitate was separated by centrifugation and 150 µl of the supernatant was diluted with 150 µl of 1% aqueous formic acid. • B) 150 µl of a zinc sulphate precipitation agent containing 78% 0.1 M zinc sulphate and 22% acetonitrile was added. After incubation at room temperature for 30 min the precipitate was separated by centrifugation. To 100 µl of the supernatant 10 µl of 1% formic acid was added followed by further incubation at 60°C for 10 min to complete the formation of the zinc chelate, if the compound contains a free DOTA moiety.
The determination of the analyte in the clean sample solutions was performed on an Agilent 1290 UHPLC system coupled to an Agilent 6530 Q-TOF mass spectrometer. The chromatographic separation was carried out on a Phenomenex BioZen XB-C18 HPLC column (50 x 2 mm, 1.7 µm particle size).
Two different elution gradients were applied using a mixture of 0.1% formic acid in water as eluent A and acetonitrile as eluent B: • A) 2% B to 41% in 7 min, 800 µl/min, 40°C. • B) 5% B to 50% B in 6 min, 800 µL/min, 40°C.
Mass spectrometric detection was performed in positive ion ESI mode by scanning the mass range from m/z 50 to 3000 with a sampling rate of 2 / sec.
(§1) From the mass spectrometric raw data the ion currents for the double or triple charged monoisotopic signal was extracted for both, the compound and the internal standard.
(§2) Quantitation was performed by external matrix calibration with internal standard using the integrated analyte signals.
Additionally, recovery was determined by spiking a pure plasma sample that only contained the internal standard after treatment with a certain amount of the compound.
Carry-over was evaluated by analysis of a blank sample (20% acetonitrile) after the highest calibration sample.
(§3) The result is stated as "% intact compound remaining after 6 h incubation" and means that from the amount of material at the start of the experiment the stated percentage is detected as unchanged material at the end of the experiment by LC-MS quantification. Since all compounds are more than 50% intact after 6 h they are considered as stable enough for diagnostic and therapeutic applications. Table 13: Results of the plasma stability assay

[2] = target: T1, Recombinant soluble human NEP (Homo sapiens, UniProt P08473); assay: Proteolytic stability assay against NEP; type: in vitro ADME; settings: recombinant soluble human NEP, human NEP 100 ng/mL, compound 10 µM, 37°C, LC-MS quantification, read-out: % intact compound remaining after 24h incubation
T1 construct: Recombinant soluble human NEP; purchased BioTechne, Wiesbaden, Germany
T1 sequence (P08473 52-750 limits assumed): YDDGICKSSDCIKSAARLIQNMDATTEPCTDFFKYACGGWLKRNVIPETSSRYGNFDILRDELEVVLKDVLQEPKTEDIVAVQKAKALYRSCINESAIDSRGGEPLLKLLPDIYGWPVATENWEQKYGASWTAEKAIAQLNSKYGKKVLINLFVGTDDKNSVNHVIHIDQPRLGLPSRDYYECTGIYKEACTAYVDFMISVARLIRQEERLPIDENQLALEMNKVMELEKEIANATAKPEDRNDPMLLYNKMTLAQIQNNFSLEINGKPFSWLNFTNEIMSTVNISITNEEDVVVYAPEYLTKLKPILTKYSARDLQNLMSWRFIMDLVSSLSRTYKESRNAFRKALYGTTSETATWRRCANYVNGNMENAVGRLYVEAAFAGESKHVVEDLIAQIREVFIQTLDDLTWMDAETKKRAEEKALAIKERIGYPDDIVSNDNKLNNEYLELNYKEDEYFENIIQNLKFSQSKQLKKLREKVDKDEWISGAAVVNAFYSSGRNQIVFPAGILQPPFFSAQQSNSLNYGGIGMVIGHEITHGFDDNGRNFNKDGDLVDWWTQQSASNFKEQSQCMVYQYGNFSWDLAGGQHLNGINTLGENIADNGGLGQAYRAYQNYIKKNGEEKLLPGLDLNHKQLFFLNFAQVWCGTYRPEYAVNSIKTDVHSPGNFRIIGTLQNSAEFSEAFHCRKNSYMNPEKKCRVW
Protocol: To assess the stability of compounds against NEP, the compounds were subjected to an in vitro assay based on the protocol described by Edelson et al. (Edelson, Makhlina et al. 2013).
Recombinant soluble human NEP (BioTechne, Wiesbaden, Germany) at a concentration of 100 ng/mL was mixed with the compound (10 µM) and a stable internal standard (10 µM) and incubated at 37°C. After several time points, samples were taken and analyzed with LC-MS.
The determination of the analyte in the clean sample solutions was performed on an Agilent 1290 UHPLC system coupled to an Agilent 6530 Q-TOF mass spectrometer. The chromatographic separation was carried out on a Phenomenex BioZen XB-C18 HPLC column (50 × 2 mm, 1.7 µm particle size) with gradient elution using a mixture of 0.1% formic acid in water as eluent A and acetonitrile as eluent B (2% B to 41% in 7 min, 800 µl/min, 40°C). Mass spectrometric detection was performed in positive ion ESI mode by scanning the mass range from m/z 50 to 3000 with a sampling rate of 2 / sec.
as §1, §2
The activity of NEP was examined using a commercially available chromogenic substrate of NEP.
as §3, with “24” for “6”, “14:” for “13:”, “NEP” for “plasma”

With CCCCC(=O)N[C@H]1CSSC[C@@H](C(N)=O)NC(=O)[C@H](CCC)NC(=O)[C@H]([C@@H](C)CC)NC(=O)[C@@H]2C[C@@H](O)CN2C(=O)[C@@H]2CCCN2C(=O)[C@H](Cc2ccccc2)NC(=O)[C@H](Cc2cccnc2)NC(=O)[C@H](CCCCNC(=O)CN2CCN(CC(=O)O)CCN(CC(=O)O)CCN(CC(=O)O)CC2)NC(=O)[C@H](CCCNC(N)=O)NC1=O [UPAR-138, Pent-[Cys-Cit-Lys(DOTA)-Mpa-Phe-Pro-Hyp-Ile-Nva-Cys]-NH2] (Pentanoyl-C[Cit]K(DOTA)[3Pal]FP[Hyp]I[Nva]C-NH2; disulfide 1-10) the remaining at 6 h, 9.8 µM [1] was 91% and the remaining at 24 h, 10 µM [2] was 94%.
In the case of CC[C@H](C)[C@@H]1NC(=O)[C@@H]2C[C@@H](O)CN2C(=O)[C@@H]2CCCN2C(=O)[C@H](Cc2ccccc2)NC(=O)[C@H](Cc2ccc(O)cc2)NC(=O)[C@H](CCC(N)=O)NC(=O)[C@H](CCCNC(N)=O)NC(=O)[C@@H](NC(=O)CCC(C)C)CSSC[C@@H](C(N)=O)NC(=O)[C@H](CC(C)C)NC1=O [UPAR-174, iHex-[Cys-Cit-Gln-Tyr-Phe-Pro-Hyp-Ile-Leu-Cys]-NH2] ({Pentanoyl(4-Me)}-C[Cit]QYFP[Hyp]ILC-NH2; disulfide 1-10), the remaining at 6 h, 9.8 µM [1] is reported as 71% and the remaining at 24 h, 10 µM [2] is reported as 90%.
CC[C@H](C)[C@@H]1NC(=O)[C@@H](C)NC(=O)[C@@H]2CCCN2C(=O)[C@H](Cc2ccccc2)NC(=O)[C@H](Cc2ccc(O)cc2)NC(=O)[C@H](CCCCNC(=O)CN2CCN(CC(=O)O)CCN(CC(=O)O)CCN(CC(=O)O)CC2)NC(=O)[C@H](CCCNC(N)=O)NC(=O)[C@@H](NC(=O)[C@H](CC(C)C)NC(=O)[C@H](CC(=O)O)NC(C)=O)CSSC[C@@H](C(N)=O)NC(=O)[C@H](CC(C)C)NC1=O [UPAR-189, Ac-Asp-Leu-[Cys-Cit-Lys(DOTA)-Tyr-Phe-Pro-ala-Ile-Leu-Cys]-NH2] (Ac-DLC[Cit]K(DOTA)YFP[dA]ILC-NH2; disulfide 3-12) showed a remaining at 6 h, 9.8 µM [1] greater than 95% and a remaining at 24 h, 10 µM [2] of 94%.
Compound CC[C@H](C)[C@@H]1NC(=O)[C@@H]2CCCN2C(=O)[C@@H]2CCCN2C(=O)[C@H](Cc2ccccc2)NC(=O)[C@H](Cc2ccc(O)cc2)NC(=O)[C@H](CCC(N)=O)NC(=O)[C@H](CCCNC(N)=O)NC(=O)[C@@H](NC(=O)[C@H](CC(C)C)NC(=O)COCCOCCNC(=O)CN2CCN(CC(=O)O)CCN(CC(=O)O)CCN(CC(=O)O)CC2)CSSC[C@@H](C(N)=O)NC(=O)[C@H](CC(C)C)NC1=O [UPAR-229, DOTA-O2Oc-Leu-[Cys-Cit-Gln-Tyr-Phe-Pro-Pro-Ile-Leu-Cys]-NHz] ({DOTA-AEEA}-LC[Cit]QYFPPILC-NH2; disulfide 2-11) has a remaining at 6 h, 9.8 µM [1] of 90% and a remaining at 24 h, 10 µM [2] of 84%.
CC[C@H](C)[C@@H]1NC(=O)[C@@H](C)NC(=O)[C@@H]2CCCN2C(=O)[C@H](Cc2ccccc2)NC(=O)[C@H](Cc2ccc(O)cc2)NC(=O)[C@H](CCC(N)=O)NC(=O)[C@H](CCCNC(N)=O)NC(=O)[C@@H](NC(=O)[C@H](CC(C)C)NC(=O)COCCOCCNC(=O)CN2CCN(CC(=O)O)CCN(CC(=O)O)CCN(CC(=O)O)CC2)CSSC[C@@H](C(N)=O)NC(=O)[C@H](CC(C)C)NC1=O [UPAR-245, DOTA-O2Oc-Leu-[Cys-Cit-Gln-Tyr-Phe-Pro-ala-Ile-Leu-Cys]-NH2] ({DOTA-AEEA}-LC[Cit]QYFP[dA]ILC-NH2; disulfide 2-11) gave a remaining at 6 h, 9.8 µM [1] of 74% and a remaining at 24 h, 10 µM [2] of 72%.
For CCCCC(=O)N[C@H]1CSSC[C@@H](C(N)=O)NC(=O)[C@H](CCC)NC(=O)[C@H]([C@@H](C)CC)NC(=O)[C@@H]2C[C@@H](O)CN2C(=O)[C@@H]2CCCN2C(=O)[C@H](Cc2ccccc2)NC(=O)[C@H](Cc2ccc(O)cc2)NC(=O)[C@H](CCCCNC(=O)CN2CCN(CC(=O)O)CCN(CC(=O)O)CCN(CC(=O)O)CC2)NC(=O)[C@H](CCCNC(N)=O)NC1=O [UPAR-261, Pent-[Cys-Cit-Lys(DOTA)-Tyr-Phe-Pro-Hyp-Ile-Nva-Cys]-NH2] (Pentanoyl-C[Cit]K(DOTA)YFP[Hyp]I[Nva]C-NH2; disulfide 1-10), the remaining at 6 h, 9.8 µM [1] was 82% and the remaining at 24 h, 10 µM [2] was 86%.
Compound CCC[C@H](NC(=O)CCC(=O)O)C(=O)N[C@H]1CSSC[C@@H](C(N)=O)NC(=O)[C@H](CCC)NC(=O)[C@H]([C@@H](C)CC)NC(=O)[C@@H]2C[C@@H](O)CN2C(=O)[C@@H]2CCCN2C(=O)[C@H](Cc2ccccc2)NC(=O)[C@H](Cc2ccc(O)cc2)NC(=O)[C@H](CCCCNC(=O)CN2CCN(CC(=O)O)CCN(CC(=O)O)CCN(CC(=O)O)CC2)NC(=O)[C@H](CCCNC(N)=O)NC1=O [UPAR-293, HO-Succinyl-Nva-[Cys-Cit-Lys(DOTA)-Tyr-Phe-Pro-Hyp-Ile-Nva-Cys]-NH2] (Suc-[Nva]C[Cit]K(DOTA)YFP[Hyp]I[Nva]C-NH2; disulfide 2-11) has a remaining at 6 h, 9.8 µM [1] greater than 95% and a remaining at 24 h, 10 µM [2] greater than 95%.
Compound CC[C@H](C)[C@@H]1NC(=O)[C@@H](CCCNC(=N)N)NC(=O)[C@@H]2CCCN2C(=O)[C@H](Cc2ccccc2)NC(=O)[C@H](Cc2ccc(O)cc2)NC(=O)[C@H](CCCCNC(=O)CN2CCN(CC(=O)O)CCN(CC(=O)O)CCN(CC(=O)O)CC2)NC(=O)[C@H](CCCNC(N)=O)NC(=O)[C@@H](NC(=O)[C@H](CC(C)C)NC(=O)[C@H](CC(=O)O)NC(C)=O)CSSC[C@@H](C(N)=O)NC(=O)[C@H](CC(C)C)NC1=O [UPAR-306, Ac-Asp-Leu-[Cys-Cit-Lys(DOTA)-Tyr-Phe-Pro-arg-Ile-Leu-Cys]-NH2] (Ac-DLC[Cit]K(DOTA)YFP[dR]ILC-NH2; disulfide 3-12) has a remaining at 6 h, 9.8 µM [1] of 95% and a remaining at 24 h, 10 µM [2] of 88%.
CC[C@H](C)[C@@H]1NC(=O)[C@@H](C)NC(=O)[C@@H]2CCCN2C(=O)[C@H](Cc2ccccc2)NC(=O)[C@H](Cc2ccc(O)cc2)NC(=O)[C@H](CCC(N)=O)NC(=O)[C@H](CCCNC(N)=O)NC(=O)[C@@H](NC(=O)CCC(C)C)CSSC[C@@H](C(N)=O)NC(=O)[C@H](CC(C)C)NC1=O [UPAR-338, iHex-[Cys-Cit-Gln-Tyr-Phe-Pro-ala-Ile-Leu-Cys]-NH2] ({Pentanoyl(4-Me)}-C[Cit]QYFP[dA]ILC-NH2; disulfide 1-10) showed a remaining at 6 h, 9.8 µM [1] of 73% and a remaining at 24 h, 10 µM [2] of 70%.
With CC[C@H](C)[C@@H]1NC(=O)[C@@H]2CCCN2C(=O)[C@@H]2CCCN2C(=O)[C@H](Cc2ccccc2)NC(=O)[C@H](Cc2ccc(O)cc2)NC(=O)[C@H](CCCCNC(=O)CN2CCN(CC(=O)O)CCN(CC(=O)O)CCN(CC(=O)O)CC2)NC(=O)[C@H](CCCNC(N)=O)NC(=O)[C@@H](NC(=O)CCC(C)C)CSSC[C@@H](C(N)=O)NC(=O)[C@H](CC(C)C)NC1=O [UPAR-382, iHex-[Cys-Cit-Lys(DOTA)-Tyr-Phe-Pro-Pro-Ile-Leu-Cys]-NHz] ({Pentanoyl(4-Me)}-C[Cit]K(DOTA)YFPPILC-NH2; disulfide 1-10) the remaining at 6 h, 9.8 µM [1] was 78% and the remaining at 24 h, 10 µM [2] was greater than 95%.
